From the NIST ThermoML archive (doi:10.1016/j.jct.2013.05.047)

Columns and labels:
[1] = for vapor or sublimation pressure: Closed cell (Static) method; for Normal melting temperature: DTA
[2] = Molar enthalpy of transition or fusion; settings: Crystal; DSC

Oc1ccc(Cl)cc1 [4-chlorophenol]
vapor or sublimation pressure [kPa], [1]
Settings	Crystal	Liquid
273.48 K	–	0.00084
273.5 K	0.00039	–
275.43 K	0.00049	–
275.44 K	–	0.00104
277.42 K	0.00063	0.00128
279.38 K	0.00081	0.00158
281.38 K	0.00103	0.00192
283.35 K	0.0013	–
283.37 K	–	0.00234
285.33 K	–	0.00286
285.35 K	0.00166	–
287.31 K	0.00208	–
287.32 K	–	0.00345
289.31 K	0.00262	0.00418
291.28 K	–	0.00507
291.31 K	0.00327	–
293.28 K	0.00406	0.00606
295.27 K	0.00505	–
295.32 K	–	0.00733
297.25 K	–	0.00872
297.26 K	0.00624	–
299.21 K	0.00766	–
299.23 K	–	0.01048
301.2 K	–	0.01241
301.23 K	0.00951	–
303.19 K	–	0.01472
303.2 K	0.01166	–
305.18 K	0.01436	0.01741
307.16 K	0.01755	–
307.18 K	–	0.02059
309.14 K	0.02132	0.02426
311.11 K	–	0.02854
311.14 K	0.02603	–
313.12 K	–	0.03332
315.06 K	–	0.03907
317.07 K	–	0.04539
319.03 K	–	0.05279
321.14 K	–	0.06178
323.09 K	–	0.07108
325.09 K	–	0.08208
327.04 K	–	0.09417
329.04 K	–	0.1088
331.02 K	–	0.1249

Settings	Normal melting temperature [°C]
[1], Crystal	43.8

Settings	Molar enthalpy of transition or fusion [kcal/mol]
[2]	3.35

Oc1ccc(I)cc1 [4-iodophenol]
vapor or sublimation pressure [kPa], [1]
Settings	Crystal	Liquid
307.15 K	0.00064	–
309.13 K	0.00079	–
311.09 K	0.00098	–
313.1 K	0.00123	–
315.1 K	0.00152	–
317.05 K	0.00189	–
319.1 K	0.00236	–
321.01 K	0.00288	–
323.01 K	0.00353	–
325.06 K	0.00436	–
326.95 K	0.00527	–
329.02 K	0.00647	–
330.91 K	0.00781	–
332.98 K	0.00956	–
334.88 K	0.01147	–
336.93 K	–	0.02432
336.95 K	0.01399	–
338.83 K	0.01662	–
338.84 K	–	0.02795
340.71 K	–	0.03222
340.9 K	0.02012	–
342.72 K	–	0.03713
342.79 K	0.02397	–
344.73 K	–	0.04253
344.86 K	0.02883	–
346.71 K	0.03411	–
346.73 K	–	0.04894
348.71 K	–	0.05593
348.82 K	0.04092	–
350.67 K	0.0482	–
350.69 K	–	0.06373
352.67 K	–	0.07262
352.76 K	0.05731	–
354.59 K	0.06713	–
354.62 K	–	0.08281
356.58 K	–	0.09387
356.72 K	0.07984	–
358.58 K	0.09351	0.1065
360.56 K	–	0.1204
360.65 K	0.1108	–
362.52 K	–	0.1359
364.52 K	–	0.1533
366.46 K	–	0.1729
368.57 K	–	0.1961
370.44 K	–	0.2178
372.51 K	–	0.2463
374.38 K	–	0.2725
376.46 K	–	0.3075
378.32 K	–	0.3409
380.41 K	–	0.382

Settings	Normal melting temperature [°C]
[1], Crystal	92.7

Settings	Molar enthalpy of transition or fusion [kcal/mol]
[2]	4.97
